These results are taken from patent US10525058B2, “Urea derivative or pharmacologically acceptable salt thereof” (KYORIN PHARMACEUTICAL CO., LTD., priority 2015, dated 2020).

The target of the assay is T1, human FPRL1 (Homo sapiens, UniProt P25090).
T1 construct: expressed in transfected cells; host or cells: HEK293 (JCRB9068, NIBIO), transient co-transfection with pCMV-script vectors
T1 sequence (P25090 1-351): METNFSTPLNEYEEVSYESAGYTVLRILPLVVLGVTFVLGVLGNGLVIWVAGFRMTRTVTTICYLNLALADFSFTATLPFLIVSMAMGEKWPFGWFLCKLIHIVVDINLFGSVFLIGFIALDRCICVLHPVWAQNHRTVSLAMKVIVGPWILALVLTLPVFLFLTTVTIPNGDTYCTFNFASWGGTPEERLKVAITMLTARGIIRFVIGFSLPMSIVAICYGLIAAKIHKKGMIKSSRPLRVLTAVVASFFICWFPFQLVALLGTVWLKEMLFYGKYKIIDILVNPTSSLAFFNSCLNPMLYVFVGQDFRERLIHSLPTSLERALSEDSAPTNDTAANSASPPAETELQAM
Nature of the assay: Measurement test of agonist activity on human FPRL1 (calcium mobilization in HEK293 cells transfected with human FPRL1 and Gα15). The assay is classed as cell-based. The note with it: Fluo-4 NW, molar concentration giving 50% maximum activation, read-out: Efficacy EC50. The source says:
Measurement test of agonist activity on human FPRL1
(1-1) Construction of Human FPRL1 Expression Vector
Human FPRL (SEQ ID NO: 3) was amplified in a PCR reaction from cDNA derived from a monocytic leukemia cell line THP-1 (TIB-202, ATCC) as a template using a forward primer shown in SEQ ID NO: 1, a reverse primer shown in SEQ ID NO: 2, and KOD-plus-ver. 2 (KOD-211, TOYOBO CO., LTD.). […] 2 (LGK-201, TOYOBO CO., LTD.). The ligation product was transformed into DH5α (DNA-901, TOYOBO CO., LTD.), cultured on a 100 μg/mL kanamycin-containing LB medium, and purified with HiSpeed Plasmid Maxi Kit (12662, QIAGEN).
(1-2) Construction of Human Gα15 Expression Vector
2. The amplified PCR product and pCMV-script vector were digested with Hind III and XhoI, and the resultant digest was ligated with Ligation high ver. 2. The ligation product was transformed into DH5α, cultured on a 100 μg/mL kanamycin-containing LB medium, and purified with HiSpeed Plasmid Maxi Kit.
(2-1) Method for Culturing and Subculturing HEK293
HEK293 (JCRB9068, NIBIO) was cultured in an incubator at 5% CO2 and 37° C. using DMEM (11885-092, GIBCO) containing 10% FBS and 1cPenicillin-Streptomycin (15140-122, GIBCO).
(2-2) Introduction of Human FPRL1 and Gal5 Expression Vectors
The cells were inoculated in a Collagen Type 1 coated 6-well plate (4810-010, IWAKI) to 5×10^5 cells/2.5 mL/well and cultured overnight. On the next day, human FPRL1 and Gα15 expression vectors were introduced using Lipofectamine 2000 transfection reagent (11668-019, Life technologies). First, the human FPRL1 and Gal5 expression vectors were diluted with Opti-MEM I Reduced Serum Medium (31985-070, GIBCO) to 2 μg/250 μL/well and Lipofectamine 2000 transfection reagent was diluted with Opti-MEM I Reduced Serum Medium to be 4 μL/250 μL/well. The vectors and reagent were softly diffused, and incubated at room temperature for 5 minutes. The vector solution was mixed with Lipofectamine 2000 transfection reagent in equal amounts. In order to form a complex of the vectors and Lipofectamine 2000 transfection reagent, the mixture was incubated at room temperature for 20 minutes, and added at 500 μL/well to the medium of inoculated cells. The treated cells were cultured for 24 hours, inoculated in Poly-D-Lysine coated 96-well plate (356640, BD Biosciences) at a cell density of 7×10^4 cells/100 μL/well, and cultured for another 24 hours. The resultant cells were used in a measurement test of calcium mobilization in the cells.
(3) Evaluation of Agonist Activity on Human FPRL1 (Test of Calcium Mobilization in Cell)
An appropriate amount of each test compound was first weighed, and dissolved to 10^−2 M by addition of dimethyl sulfoxide (DMSO). […] The plate dispensed with compound solutions was set in Flexstation (Molecular Devices, LLC.) until measurement.
Subsequently, 10 mL of assay buffer and 100 μL of probenecid solution (dissolved by addition of 1 mL of assay buffer to a 250 mM stock) were sufficiently mixed and dissolved in Fluo-4 NW dye mix. The medium of cells inoculated on the previous day was removed, the dissolved Fluo-4 NW dye mix was added in an amount of 90 μL/well, and a reaction was caused in the dark at 37° C. for 45 minutes. The cells after the reaction and chips for addition of the compound were set in Flexstation, and variation in fluorescence intensity over time after addition of the compound was measured [amount of added compound=10 μL (final concentration: 10^−5 M to 10^−12 M), excitation wavelength: 485 nm, measured wavelength: 525 nm, 1.5 sec×54 read]. A value was calculated by subtracting a base value during addition of DMSO from the maximum value of relative fluorescence unit, and analyzed. All the measurement data were analyzed with Prism 4 that was a data analysis tool.
On to `COc1ccc([C@@H]2COC[C@@H]2NC(=O)Nc2ccc(Cl)cc2)cc1` (racemic) [Example 1-1, (±)-cis-1-(4-Chlorophenyl)-3-[4-(4-methoxyphenyl)tetrahydrofuran-3-yl]urea], for which the EC50 is 0.25 nM.
Regarding `COc1cc(F)c([C@@H]2CN3CCCN=C3[C@H]2NC(=O)Nc2ccc(F)cc2)c(F)c1` (single isomer, unassigned) [Example 7-6, (−)-1-[(7R*,8S*)-7-(2,6-difluoro-4-methoxyphenyl)-2,3,4,6,7,8-hexahydropyrrolo[1,2-a]pyrimidin-8-yl]-3-(4-fluorophenyl)urea], the EC50 amounted to 0.97 nM.
As for `COc1ccc(C2COC(=O)N2NC(=O)Nc2ccc(Cl)cc2)cc1` (racemic) [Example 5-4, (±)-1-(4-chlorophenyl)-3-[4-(4-methoxyphenyl)-2-oxooxazolidin-3-yl]urea], the EC50 is 2.6 nM.
Consider `O=C(Nc1ccc(F)cc1)N[C@@H]1c2nnnn2C[C@H]1c1cc2c(cc1F)OCC2` (single isomer, unassigned) [Example 7-5, (−)-1-[(6R*,7S*)-6-(6-fluoro-2,3-dihydrobenzofuran-5-yl)-6,7-dihydro-5H-pyrrolo[1,2-d]tetrazol-7-yl]-3-(4-fluorophenyl)urea], for which the concentration giving a half-maximal response (EC50) worked out at 2.5 nM.
As for `COc1ccc([C@@H]2COC[C@@H]2NC(=O)Nc2ccc(Cl)s2)cc1` (racemic) [Example 1-7, (±)-cis-1-(5-chlorothiophen-2-yl)-3-[4-(4-methoxyphenyl)-tetrahydrofuran-3-yl]urea], the EC50 amounted to 5.2 nM.
For the compound `COc1ccc([C@@H]2CC(=O)N[C@H]2NC(=O)Nc2ccc(F)cc2)cc1` (racemic) [Example 6-1, (±)-trans-1-(4-Fluorophenyl)-3-[3-(4-methoxyphenyl)-5-oxopyrrolidin-2-yl]urea], the EC50 is 5.6 nM.
For the compound `COc1ccc([C@@H]2CCNC(=O)C2NC(=O)Nc2ccc(Cl)cc2)cc1` (mixture of isomers) [Example 1-11, (±)-trans-1-(4-chlorophenyl)-3-[4-(4-methoxyphenyl)-2-oxopiperidin-3-yl]urea], the EC50 worked out at 0.11 nM.
On to `COc1ccc([C@@H]2Cn3nnnc3[C@H]2NC(=O)Nc2ccc(F)cc2)cc1` (single isomer, unassigned) [Example 7-3, (−)-1-(4-fluorophenyl)-3-[(6R*,7S*)-6-(4-methoxyphenyl)-6,7-dihydro-5H-pyrrolo[1,2-d]tetrazol-7-yl]urea], for which the EC50 was 0.6 nM.
`COc1ccc([C@@H]2CN3C(=O)CON=C3[C@H]2NC(=O)Nc2ccc(F)cc2)cc1` (relative stereo) [Example 10-1, 1-(4-Fluorophenyl)-3-[(7R*,8S*)-7-(4-methoxyphenyl)-4-oxo-4,6,7,8-tetrahydro-3H-pyrrolo[2,1-c][1,2,4]oxadiazin-8-yl]urea]: the EC50 was 0.29 nM.
The same measure for `COc1cc(F)c([C@@H]2CN3C(=O)CCN=C3[C@H]2NC(=O)Nc2ccc(F)cc2)c(F)c1` (single isomer, unassigned) [Example 9-1, (−)-1-[(7R*,8S*)-7-(2,6-Difluoro-4-methoxyphenyl)-4-oxo-2,3,4,6,7,8-hexahydropyrrolo[1,2-a]pyrimidin-8-yl]-3-(4-fluorophenyl)urea]: 0.03 nM; for `COc1ccc([C@@H]2COC[C@H]2NC(=O)Nc2ccc(Cl)cc2)cc1` (racemic) [Example 1-9, (±)-trans-1-(4-chlorophenyl)-3-[4-(4-methoxyphenyl)tetrahydrofuran-3-yl]urea]: 2.3 nM.
Take `COc1cc(F)c([C@@H]2Cn3nnnc3[C@H]2NC(=O)Nc2ccc(F)cc2)c(F)c1` (single isomer, unassigned) [Example 7-4, (−)-1-[(6R*,7S*)-6-(2,6-difluoro-4-methoxyphenyl)-6,7-dihydro-5H-pyrrolo[1,2-d]tetrazol-7-yl]-3-(4-fluorophenyl)urea]: the 50% effective concentration (EC50) was determined as 0.36 nM.
Consider `COc1ccc([C@@H]2COC[C@@H]2NC(=O)Nc2ccc(F)c(F)c2)cc1` (racemic) [Example 1-5, (±)-cis-1-(3,4-difluorophenyl)-3-[4-(4-methoxyphenyl)tetrahydrofuran-3-yl]urea], for which the EC50 came to 12 nM.
As to `COc1cc(F)c([C@@H]2COC[C@@H]2NC(=O)Nc2ccc(F)cc2)c(F)c1` (racemic) [Example 1-8, (±)-cis-1-[4-(2,6-difluoro-4-methoxyphenyl)-tetrahydrofuran-3-yl]-3-(4-fluorophenyl)urea], the EC50 worked out at 3.78 nM.
Turning to `COc1ccc(C2CS(=O)(=O)CC2NC(=O)Nc2ccc(Cl)cc2)cc1` (racemic) [Example 1-10, (±)-1-(4-chlorophenyl)-3-[4-(4-methoxyphenyl)-1,1-dioxideterrahydrothiophen-3-yl]urea], the EC50 turned out to be 0.29 nM.
With `COc1ccc([C@@H]2COC[C@@H]2NC(=O)Nc2ccc(C#N)cc2)cc1` (racemic) [Example 1-6, (±)-cis-1-(4-cyanophenyl)-3-[4-(4-methoxyphenyl)-tetrahydrofuran-3-yl]urea], the EC50 came out at 10 nM.
For the compound `COc1cc(F)c([C@@H]2Cn3ccnc3[C@H]2NC(=O)Nc2ccc(F)cc2)c(F)c1` (single isomer, unassigned) [Example 7-2, (−)-1-[(6R*,7S*)-6-(2,6-difluoro-4-methoxyphenyl)-6,7-dihydro-5H-pyrrolo[1,2-a]imidazol-7-yl]-3-(4-fluorophenyl)urea], the EC50 was determined as 0.25 nM.
In the case of `O=C(Nc1ccc(F)cc1)NC1COC[C@H]1c1ccc(Cl)cc1` (mixture of isomers) [Example 5-1, (±)-cis-1-[4-(4-Chlorophenyl)tetrahydrofuran-3-yl]-3-(4-fluorophenyl)urea], the concentration for a half-maximal effect (EC50) turned out to be 14 nM.
As to `COc1cc(F)c([C@@H]2Cn3c(C)nnc3C2NC(=O)Nc2ccc(F)cc2)c(F)c1` (single isomer, unassigned; (-)) [Example 7-1, (−)-1-[(6R*,7S*)-6-(2,6-Difluoro-4-methoxyphenyl)-3-methyl-6,7-dihydro-5H-pyrrolo[2,1-c][1,2,4]triazol-7-yl]-3-(4-fluorophenyl)urea], the EC50 is 0.05 nM.
The same measure for `COc1cc(F)c([C@@H]2CN3C(=O)CON=C3[C@H]2NC(=O)Nc2ccc(F)cc2)c(F)c1` (single isomer, unassigned) [Example 8-1, (−)-1-[(7R*,8S*)-7-(2,6-Difluoro-4-methoxyphenyl)-4-oxo-4,6,7,8-tetrahydro-3H-pyrrolo[2,1-c][1,2,4]oxadiazin-8-yl]-3-(4-fluorophenyl)urea]: 0.03 nM.
